In US12297190B2, “Modulators of STING (stimulator of interferon genes)” (PFIZER INC., priority 2019, dated 2025):
pKi: −log10 of the molar value.

Each molecule was assayed against R232-STING (Homo sapiens, UniProt Q86WV6, H232R) (assay: biochemical).
Chain of R232-STING (Q86WV6 155-341 H232R): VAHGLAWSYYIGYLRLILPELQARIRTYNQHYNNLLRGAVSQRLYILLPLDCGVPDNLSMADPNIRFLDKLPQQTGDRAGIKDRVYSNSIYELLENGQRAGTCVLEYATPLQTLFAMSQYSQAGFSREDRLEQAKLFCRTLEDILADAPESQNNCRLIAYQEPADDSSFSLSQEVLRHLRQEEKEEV

Q: `CCn1nc(C)cc1-c1n[nH]c(-c2cc(C(N)=O)cc3c2cnn3CCN(C)CC(N)=O)n1` [ZZZ105, 1-{2-[(2-amino-2-oxoethyl)(methyl)amino]ethyl}-4-[3-(1-ethyl-3-methyl-1H-pyrazol-5-yl)-1H-1,2,4-triazol-5-yl]-1H-indazole-6-carboxamide] was tested. Which pKi did it give?
A: 6.06

Q: With `CCn1nc(C)cc1-c1n[nH]c(-c2cc(C(N)=O)cc3c2cnn3CCN2CC[C@H](OC)C2)n1` [ZZZ106, 4-[3-(1-ethyl-3-methyl-1H-pyrazol-5-yl)-1H-1,2,4-triazol-5-yl]-1-{2-[(3S)-3-methoxypyrrolidin-1-yl]ethyl}-1H-indazole-6-carboxamide] as the molecule, how does the pKi read?
A: 6.03

Q: `CCn1nc(C)cc1-c1n[nH]c(-c2cc(C(N)=O)cc3c2cnn3CCN2CC[C@@H](O)C2)n1` [ZZZ107, 4-[3-(1-ethyl-3-methyl-1H-pyrazol-5-yl)-1H-1,2,4-triazol-5-yl]-1-{2-[(3R)-3-hydroxypyrrolidin-1-yl]ethyl}-1H-indazole-6-carboxamide] was tested. Which pKi did it give?
A: < 6.00

Q: With `CCn1nc(C)cc1-c1n[nH]c(-c2cc(C(N)=O)cc3c2cnn3CCN(C)C2CCC2)n1` [ZZZ108, 1-{2-[cyclobutyl(methyl)amino]ethyl}-4-[3-(1-ethyl-3-methyl-1H-pyrazol-5-yl)-1H-1,2,4-triazol-5-yl]-1H-indazole-6-carboxamide] as the molecule, how does the pKi read?
A: 6.07

Q: `CCn1nc(C)cc1-c1n[nH]c(-c2cc(C(N)=O)cc3c2cnn3CCN(C)CCO)n1` [ZZZ109, 4-[3-(1-ethyl-3-methyl-1H-pyrazol-5-yl)-1H-1,2,4-triazol-5-yl]-1-{2-[(2-hydroxyethyl)(methyl)amino]ethyl}-1H-indazole-6-carboxamide] was tested. Which pKi did it give?
A: 6.02

Q: How did the pKi turn out when `CCn1nc(C)cc1-c1n[nH]c(-c2cc(C(N)=O)cc3c2cnn3CCN2CC3CCC3C2)n1` (stereo not drawn) [ZZZ110, 1-[2-(3-azabicyclo[3.2.0]heptan-3-yl)ethyl]-4-[3-(1-ethyl-3-methyl-1H-pyrazol-5-yl)-1H-1,2,4-triazol-5-yl]-1H-indazole-6-carboxamide] was run?
A: 6.21

Q: `CCn1nc(C)cc1-c1n[nH]c(-c2cc(C(N)=O)cc3c2cnn3CCN2CC[C@@H](OC)C2)n1` [ZZZ111, 4-[3-(1-ethyl-3-methyl-1H-pyrazol-5-yl)-1H-1,2,4-triazol-5-yl]-1-{2-[(3R)-3-methoxypyrrolidin-1-yl]ethyl}-1H-indazole-6-carboxamide] was tested. Which pKi did it give?
A: 6.07

Q: `CCN(CCO)CCn1ncc2c(-c3nc(-c4cc(C)nn4CC)n[nH]3)cc(C(N)=O)cc21` [ZZZ112, 1-{2-[ethyl(2-hydroxyethyl)amino]ethyl}-4-[3-(1-ethyl-3-methyl-1H-pyrazol-5-yl)-1H-1,2,4-triazol-5-yl]-1H-indazole-6-carboxamide] was tested. Which pKi did it give?
A: < 6.00

Q: `CCn1nc(C)cc1-c1n[nH]c(-c2cc(C(N)=O)cc3c2cnn3CCN2C[C@@H]3C[C@H]2CO3)n1` [ZZZ113, 4-[3-(1-ethyl-3-methyl-1H-pyrazol-5-yl)-1H-1,2,4-triazol-5-yl]-1-{2-[(1S,4S)-2-oxa-5-azabicyclo[2.2.1]heptan-5-yl]ethyl}-1H-indazole-6-carboxamide] was tested. Which pKi did it give?
A: 6.14

Q: With `CCn1nc(C)cc1-c1n[nH]c(-c2cc(C(N)=O)cc3c2cnn3CCN2CCO[C@@H](CO)C2)n1` [ZZZ115, 4-[3-(1-ethyl-3-methyl-1H-pyrazol-5-yl)-1H-1,2,4-triazol-5-yl]-1-{2-[(2R)-2-(hydroxymethyl)morpholin-4-yl]ethyl}-1H-indazole-6-carboxamide] as the molecule, how does the pKi read?
A: 6.07

Q: With `CCn1nc(C)cc1-c1n[nH]c(-c2cc(C(N)=O)cc3c2cnn3CCN2CCOC[C@@H]2CO)n1` [ZZZ116, 4-[3-(1-ethyl-3-methyl-1H-pyrazol-5-yl)-1H-1,2,4-triazol-5-yl]-1-{2-[(3S)-3-(hydroxymethyl)morpholin-4-yl]ethyl}-1H-indazole-6-carboxamide] as the molecule, how does the pKi read?
A: < 6.00

Q: With `CCn1nc(C)cc1-c1n[nH]c(-c2cc(C(N)=O)cc3c2cnn3CCN2CCO[C@H](CO)C2)n1` [ZZZ118, 4-[3-(1-ethyl-3-methyl-1H-pyrazol-5-yl)-1H-1,2,4-triazol-5-yl]-1-{2-[(2S)-2-(hydroxymethyl)morpholin-4-yl]ethyl}-1H-indazole-6-carboxamide] as the molecule, how does the pKi read?
A: 6.27
